The values that follow come from ChEMBL document CHEMBL1201862, “PubChem BioAssay data set” (2004).

Assay [1] deals with T1, Sentrin-specific protease 6 (Homo sapiens, UniProt Q9GZR1).
T1 sequence (Q9GZR1 whole entry): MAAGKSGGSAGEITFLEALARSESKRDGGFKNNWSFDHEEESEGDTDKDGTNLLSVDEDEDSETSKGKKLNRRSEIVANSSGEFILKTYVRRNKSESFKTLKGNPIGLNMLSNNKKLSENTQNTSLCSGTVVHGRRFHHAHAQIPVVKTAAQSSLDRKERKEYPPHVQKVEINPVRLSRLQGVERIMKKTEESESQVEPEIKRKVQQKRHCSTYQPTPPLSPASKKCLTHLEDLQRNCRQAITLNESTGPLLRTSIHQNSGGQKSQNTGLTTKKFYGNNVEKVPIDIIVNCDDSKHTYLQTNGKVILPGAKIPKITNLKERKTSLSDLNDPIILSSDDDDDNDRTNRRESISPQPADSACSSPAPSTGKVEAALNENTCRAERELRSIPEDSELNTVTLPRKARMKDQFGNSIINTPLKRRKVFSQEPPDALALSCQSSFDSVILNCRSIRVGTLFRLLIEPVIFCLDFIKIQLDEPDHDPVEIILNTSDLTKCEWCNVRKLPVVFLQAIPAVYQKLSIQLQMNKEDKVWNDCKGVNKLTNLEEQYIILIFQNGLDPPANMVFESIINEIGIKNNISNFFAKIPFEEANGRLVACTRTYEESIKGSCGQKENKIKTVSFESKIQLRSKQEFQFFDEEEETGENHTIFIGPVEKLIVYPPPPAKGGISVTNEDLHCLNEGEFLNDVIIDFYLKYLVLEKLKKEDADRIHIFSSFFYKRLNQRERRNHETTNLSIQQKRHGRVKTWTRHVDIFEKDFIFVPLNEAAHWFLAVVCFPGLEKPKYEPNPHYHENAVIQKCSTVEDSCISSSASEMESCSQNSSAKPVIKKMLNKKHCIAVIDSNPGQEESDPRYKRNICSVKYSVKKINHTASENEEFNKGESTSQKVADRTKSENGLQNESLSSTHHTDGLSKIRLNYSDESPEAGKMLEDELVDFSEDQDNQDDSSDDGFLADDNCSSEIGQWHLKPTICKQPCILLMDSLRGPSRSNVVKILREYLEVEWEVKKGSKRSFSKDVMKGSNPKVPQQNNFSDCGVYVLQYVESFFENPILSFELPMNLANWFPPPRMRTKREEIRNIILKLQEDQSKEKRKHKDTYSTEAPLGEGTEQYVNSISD
In kind it is functional.

For assay [2], the target named is T2, Sentrin-specific protease 8 (Homo sapiens, UniProt Q96LD8).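 Note: luminescence read-out of SENP8 inhibition, dose-response confirmation following an ultra-high-throughput screen.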
T2 sequence (Q96LD8 whole entry): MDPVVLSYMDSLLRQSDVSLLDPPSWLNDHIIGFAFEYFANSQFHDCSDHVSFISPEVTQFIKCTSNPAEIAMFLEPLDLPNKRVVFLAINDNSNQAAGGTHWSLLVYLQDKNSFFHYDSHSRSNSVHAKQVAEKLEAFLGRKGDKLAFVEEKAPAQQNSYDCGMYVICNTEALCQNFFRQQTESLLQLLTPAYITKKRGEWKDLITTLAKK
In kind it is functional.

For the next assay, the target named is Caspase-9 (Homo sapiens, UniProt P55211). The assay can be described thus: caspase-9 enzyme inhibition, dose response, selectivity assay for caspase-6 inhibitor project, biochemical, fluorescence, plate reader, cherry-picked samples (AID 743293).
Another assay deals with SUMO-activating enzyme (Homo sapiens, UniProt Q9UBT2). Put plainly: inhibitors of in vitro SUMOylation cascade, primary screen, biochemical, HTRF, uHTS (AID 2006). In kind it is protein-complex assay. (TR-FRET usually uses a lanthanide donor and a delayed reading to cut background.)
Assay [3] addresses Glycogen synthase kinase-3 alpha (Homo sapiens, UniProt P49840). In kind it is functional.
In assay [4] the target is Glycogen synthase kinase-3 beta (Homo sapiens, UniProt P49841). The class given is functional.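 Note: value comes from a broad kinome profiling panel, with GSK3B as the panel member.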
The target of another assay is Misshapen-like kinase 1 (Homo sapiens, UniProt Q8N4C8). In kind it is functional.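 Note: kinome panel screen with MINK as the panel member.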
Assay [5] addresses Insulin-like growth factor 1 receptor (Homo sapiens, UniProt P08069). The assay can be described thus: Navigating the Kinome. Panel member name: IGF1R. In kind it is functional.
Another assay addresses Activin receptor type-1 (Homo sapiens, UniProt Q04771). The assay can be described thus: Navigating the Kinome. Panel member name: ACVR1. The class given is functional.
For assay [6], the target named is Hepatocyte growth factor receptor (Homo sapiens, UniProt P08581). The class given is functional.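 Note: kinase panel profiling across the kinome, with MET as the panel member.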
Assay [7] concerns the target Dual specificity tyrosine-phosphorylation-regulated kinase 1A (Homo sapiens, UniProt Q13627). In kind it is functional.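 Note: measured against DYRK1A as one member of a broad kinome profiling panel.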
The target in assay [8] is Tyrosine-protein kinase ABL1 (Homo sapiens, UniProt P00519). The class given is functional.
A further assay addresses LIM domain kinase 1 (Homo sapiens, UniProt P53667). Put plainly: Navigating the Kinome. Panel member name: LIMK1. In kind it is functional.
For assay [9], the target named is Leukocyte tyrosine kinase receptor (Homo sapiens, UniProt P29376). The assay can be described thus: Navigating the Kinome. Panel member name: LTK. In kind it is functional.
Assay [10] addresses MAP kinase-activated protein kinase 2 (Homo sapiens, UniProt P49137). The class given is functional.
Assay [11] concerns the target MAP kinase-activated protein kinase 3 (Homo sapiens, UniProt Q16644). The class given is functional.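 Note: value comes from a kinome-wide profiling panel in which MAPKAPK3 is one of the panel members.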
The target in assay [12] is Serine/threonine-protein kinase MRCK alpha (Homo sapiens, UniProt Q5VT25). The class given is functional.
The target in assay [13] is Serine/threonine-protein kinase PLK4 (Homo sapiens, UniProt O00444). In kind it is functional.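 Note: PLK4 measured as one member of a kinome-wide kinase profiling panel.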
Assay [14] addresses Serine/threonine-protein kinase Chk1 (Homo sapiens, UniProt O14757). In kind it is functional.
Assay [15] addresses Tyrosine-protein kinase Fyn (Homo sapiens, UniProt P06241). The class given is functional.
For assay [16], the target named is Serine/threonine-protein kinase BRSK1 (Homo sapiens, UniProt Q8TDC3). The class given is functional.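 Note: measured within a kinome-wide kinase panel, with the target listed as KIAA1811.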
In assay [17] the target is Serine/threonine-protein kinase PLK3 (Homo sapiens, UniProt Q9H4B4). The class given is functional.
In assay [18] the target is Vascular endothelial growth factor receptor 3 (Homo sapiens, UniProt P35916). In kind it is functional.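 Note: value from a kinome-wide profiling panel, with FLT4 as the panel member.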
Assay [19] concerns the target BDNF/NT-3 growth factors receptor (Homo sapiens, UniProt Q16620). The class given is functional.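 Note: NTRK2 measured as one member of a broad kinome-wide kinase profiling panel.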
Assay [20] concerns the target Tyrosine-protein kinase BTK (Homo sapiens, UniProt Q06187). The class given is functional.
For assay [21], the target named is Testis-specific serine/threonine-protein kinase 2 (Homo sapiens, UniProt Q96PF2). The class given is functional.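 Note: part of the Navigating the Kinome panel, target entry STK22B.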
The target of assay [22] is Proto-oncogene tyrosine-protein kinase Src (Homo sapiens, UniProt P12931). The class given is functional.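 Note: SRC entry within a kinome-wide kinase profiling panel.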
Assay [23] has as its target Dual specificity mitogen-activated protein kinase kinase 2 (Homo sapiens, UniProt P36507). Put plainly: Navigating the Kinome. Panel member name: MAP2K2. The class given is functional.

Active and inactive are the calls of the source.

Serine/threonine-protein kinase Chk1, sequence (O14757 whole entry): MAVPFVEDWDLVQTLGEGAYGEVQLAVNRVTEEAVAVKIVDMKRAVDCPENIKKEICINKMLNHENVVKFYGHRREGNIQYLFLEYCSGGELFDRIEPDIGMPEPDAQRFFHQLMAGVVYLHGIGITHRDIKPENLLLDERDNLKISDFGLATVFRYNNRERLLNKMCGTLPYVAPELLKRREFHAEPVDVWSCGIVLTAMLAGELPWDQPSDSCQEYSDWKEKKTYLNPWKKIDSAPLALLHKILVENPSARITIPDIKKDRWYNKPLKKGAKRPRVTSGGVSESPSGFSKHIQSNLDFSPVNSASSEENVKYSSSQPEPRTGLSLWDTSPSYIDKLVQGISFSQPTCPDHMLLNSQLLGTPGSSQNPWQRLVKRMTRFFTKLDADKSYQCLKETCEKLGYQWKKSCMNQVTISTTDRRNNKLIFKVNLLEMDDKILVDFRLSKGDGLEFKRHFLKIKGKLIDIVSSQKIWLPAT
Tyrosine-protein kinase BTK, sequence (Q06187 whole entry): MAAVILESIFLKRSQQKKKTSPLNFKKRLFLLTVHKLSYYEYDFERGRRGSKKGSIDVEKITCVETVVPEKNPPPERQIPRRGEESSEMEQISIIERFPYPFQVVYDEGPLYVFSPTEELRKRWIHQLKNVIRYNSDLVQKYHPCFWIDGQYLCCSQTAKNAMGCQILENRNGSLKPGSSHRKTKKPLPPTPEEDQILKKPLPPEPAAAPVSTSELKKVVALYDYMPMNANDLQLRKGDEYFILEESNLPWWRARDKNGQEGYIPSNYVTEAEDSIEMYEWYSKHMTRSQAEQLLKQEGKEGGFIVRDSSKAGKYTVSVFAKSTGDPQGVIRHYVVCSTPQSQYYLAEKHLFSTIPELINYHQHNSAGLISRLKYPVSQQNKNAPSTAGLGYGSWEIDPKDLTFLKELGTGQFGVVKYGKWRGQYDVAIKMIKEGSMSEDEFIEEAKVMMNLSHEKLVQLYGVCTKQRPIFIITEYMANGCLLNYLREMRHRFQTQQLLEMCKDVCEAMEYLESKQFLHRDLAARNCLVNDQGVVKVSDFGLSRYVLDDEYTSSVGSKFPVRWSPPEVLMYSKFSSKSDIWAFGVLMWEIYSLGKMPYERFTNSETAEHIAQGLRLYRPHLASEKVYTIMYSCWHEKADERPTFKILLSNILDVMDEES
Serine/threonine-protein kinase MRCK alpha, sequence (Q5VT25 whole entry): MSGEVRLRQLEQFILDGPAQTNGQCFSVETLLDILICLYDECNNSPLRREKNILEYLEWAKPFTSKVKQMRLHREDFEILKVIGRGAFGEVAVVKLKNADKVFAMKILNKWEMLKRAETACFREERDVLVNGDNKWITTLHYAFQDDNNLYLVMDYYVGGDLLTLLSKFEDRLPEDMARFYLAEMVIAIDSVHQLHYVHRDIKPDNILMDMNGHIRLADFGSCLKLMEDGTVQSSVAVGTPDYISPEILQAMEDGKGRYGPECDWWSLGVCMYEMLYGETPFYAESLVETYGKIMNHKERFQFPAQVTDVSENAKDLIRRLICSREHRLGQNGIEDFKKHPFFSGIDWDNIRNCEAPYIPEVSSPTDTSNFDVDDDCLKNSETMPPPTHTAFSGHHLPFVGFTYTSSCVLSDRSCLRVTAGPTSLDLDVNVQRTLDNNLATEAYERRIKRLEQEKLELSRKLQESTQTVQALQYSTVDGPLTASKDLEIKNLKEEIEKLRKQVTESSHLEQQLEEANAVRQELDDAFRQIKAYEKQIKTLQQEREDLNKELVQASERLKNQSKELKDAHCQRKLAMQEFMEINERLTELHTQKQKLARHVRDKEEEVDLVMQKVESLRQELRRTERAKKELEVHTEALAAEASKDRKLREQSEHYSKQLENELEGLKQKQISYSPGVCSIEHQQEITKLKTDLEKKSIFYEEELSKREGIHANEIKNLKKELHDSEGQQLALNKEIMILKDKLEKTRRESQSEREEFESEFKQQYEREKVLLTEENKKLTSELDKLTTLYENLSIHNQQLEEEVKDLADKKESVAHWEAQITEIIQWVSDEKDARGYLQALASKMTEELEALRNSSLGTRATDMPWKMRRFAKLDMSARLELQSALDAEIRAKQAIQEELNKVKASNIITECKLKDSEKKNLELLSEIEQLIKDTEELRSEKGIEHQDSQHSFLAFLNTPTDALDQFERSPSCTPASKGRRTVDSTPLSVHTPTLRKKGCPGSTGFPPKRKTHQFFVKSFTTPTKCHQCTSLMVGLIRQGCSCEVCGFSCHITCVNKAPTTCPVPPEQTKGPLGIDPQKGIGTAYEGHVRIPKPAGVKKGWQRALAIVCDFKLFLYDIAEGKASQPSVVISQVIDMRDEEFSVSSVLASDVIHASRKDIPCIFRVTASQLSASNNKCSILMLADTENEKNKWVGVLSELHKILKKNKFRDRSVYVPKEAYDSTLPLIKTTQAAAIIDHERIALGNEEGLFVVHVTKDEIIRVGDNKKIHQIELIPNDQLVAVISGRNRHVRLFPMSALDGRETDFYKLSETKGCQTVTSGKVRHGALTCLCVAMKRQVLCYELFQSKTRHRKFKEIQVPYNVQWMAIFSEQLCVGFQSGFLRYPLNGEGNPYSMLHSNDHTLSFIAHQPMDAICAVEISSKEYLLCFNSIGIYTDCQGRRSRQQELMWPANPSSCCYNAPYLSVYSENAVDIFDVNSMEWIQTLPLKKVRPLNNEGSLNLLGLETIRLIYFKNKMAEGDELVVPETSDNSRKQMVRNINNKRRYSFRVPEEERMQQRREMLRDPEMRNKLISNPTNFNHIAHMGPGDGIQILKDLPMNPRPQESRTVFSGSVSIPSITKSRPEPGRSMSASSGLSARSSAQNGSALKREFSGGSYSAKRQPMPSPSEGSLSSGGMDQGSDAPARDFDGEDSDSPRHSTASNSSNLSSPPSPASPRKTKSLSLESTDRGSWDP
Misshapen-like kinase 1, sequence (Q8N4C8 whole entry): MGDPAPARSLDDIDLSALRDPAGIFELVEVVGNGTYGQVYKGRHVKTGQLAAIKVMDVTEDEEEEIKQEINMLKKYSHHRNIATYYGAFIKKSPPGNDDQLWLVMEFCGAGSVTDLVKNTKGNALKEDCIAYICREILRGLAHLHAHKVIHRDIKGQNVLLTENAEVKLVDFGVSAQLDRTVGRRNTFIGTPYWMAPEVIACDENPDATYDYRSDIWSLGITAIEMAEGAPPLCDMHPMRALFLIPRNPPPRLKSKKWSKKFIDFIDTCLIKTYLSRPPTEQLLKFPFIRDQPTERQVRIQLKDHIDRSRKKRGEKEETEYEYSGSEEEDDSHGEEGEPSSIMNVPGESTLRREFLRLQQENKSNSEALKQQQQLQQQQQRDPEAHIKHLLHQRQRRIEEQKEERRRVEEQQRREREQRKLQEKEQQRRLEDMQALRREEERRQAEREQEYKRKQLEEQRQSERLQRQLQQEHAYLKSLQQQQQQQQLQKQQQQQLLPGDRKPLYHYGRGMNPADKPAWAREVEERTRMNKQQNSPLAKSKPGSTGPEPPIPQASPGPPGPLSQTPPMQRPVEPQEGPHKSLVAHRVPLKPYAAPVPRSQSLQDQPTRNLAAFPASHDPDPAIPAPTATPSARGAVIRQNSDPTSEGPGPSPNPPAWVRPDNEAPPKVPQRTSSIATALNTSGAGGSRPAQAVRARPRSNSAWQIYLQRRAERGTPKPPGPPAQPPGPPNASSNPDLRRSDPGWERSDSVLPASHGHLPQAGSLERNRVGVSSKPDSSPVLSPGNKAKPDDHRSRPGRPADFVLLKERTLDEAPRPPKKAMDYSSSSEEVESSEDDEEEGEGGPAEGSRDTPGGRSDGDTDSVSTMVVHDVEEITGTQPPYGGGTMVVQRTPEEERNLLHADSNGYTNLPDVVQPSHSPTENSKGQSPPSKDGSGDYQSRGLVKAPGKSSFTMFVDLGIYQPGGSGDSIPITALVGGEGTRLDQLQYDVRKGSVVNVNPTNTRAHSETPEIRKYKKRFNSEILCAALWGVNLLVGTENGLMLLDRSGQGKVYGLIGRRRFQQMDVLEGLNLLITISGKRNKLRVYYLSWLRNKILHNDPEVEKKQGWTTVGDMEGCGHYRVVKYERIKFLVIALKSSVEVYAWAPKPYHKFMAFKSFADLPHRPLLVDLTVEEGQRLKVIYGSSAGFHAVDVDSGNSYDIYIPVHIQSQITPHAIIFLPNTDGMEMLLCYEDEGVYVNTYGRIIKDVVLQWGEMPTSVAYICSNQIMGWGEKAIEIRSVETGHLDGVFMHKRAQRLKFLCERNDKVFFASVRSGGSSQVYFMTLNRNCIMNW
MAP kinase-activated protein kinase 2, sequence (P49137 whole entry): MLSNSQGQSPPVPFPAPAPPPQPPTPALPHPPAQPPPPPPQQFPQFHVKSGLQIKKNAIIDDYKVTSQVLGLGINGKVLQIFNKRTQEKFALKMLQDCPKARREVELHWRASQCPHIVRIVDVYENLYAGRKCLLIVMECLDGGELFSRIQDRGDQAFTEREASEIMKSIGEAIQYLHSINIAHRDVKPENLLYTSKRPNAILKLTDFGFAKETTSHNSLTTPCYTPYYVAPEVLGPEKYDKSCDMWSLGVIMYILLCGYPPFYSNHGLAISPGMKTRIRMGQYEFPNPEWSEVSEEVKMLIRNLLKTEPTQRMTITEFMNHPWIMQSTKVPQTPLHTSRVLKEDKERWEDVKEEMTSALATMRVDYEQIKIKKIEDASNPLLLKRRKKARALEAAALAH
Dual specificity mitogen-activated protein kinase kinase 2, sequence (P36507 whole entry): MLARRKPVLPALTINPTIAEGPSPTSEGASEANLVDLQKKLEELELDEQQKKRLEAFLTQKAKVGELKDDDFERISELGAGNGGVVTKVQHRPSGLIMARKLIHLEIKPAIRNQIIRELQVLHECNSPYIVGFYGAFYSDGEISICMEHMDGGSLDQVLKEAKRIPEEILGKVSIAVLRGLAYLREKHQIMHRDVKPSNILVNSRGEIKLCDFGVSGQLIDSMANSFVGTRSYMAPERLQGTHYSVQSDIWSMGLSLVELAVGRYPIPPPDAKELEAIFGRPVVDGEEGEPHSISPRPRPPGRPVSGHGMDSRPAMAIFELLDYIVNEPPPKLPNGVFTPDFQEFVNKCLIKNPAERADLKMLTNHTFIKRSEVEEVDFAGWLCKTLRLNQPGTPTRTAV

Broadly, the IC50 is the point on the concentration scale where inhibition reaches its midpoint. Usually AC50 stands for the midpoint of the concentration-response curve, whichever way the signal moves. `Cc1c(NC(=O)C(C)OC(=O)c2ccc([N+](=O)[O-])s2)c(=O)n(-c2ccccc2)n1C` (stereo not drawn): the results for the IC50 in assay [1] and in assay [2] were 7.32 µM (active) and 6.5 µM (active), respectively. At Caspase-9, the AC50 is 41.3 µM (active).
Regarding `COc1cc(Br)c(C(=O)c2nccc3cc(OC)c(OC)cc23)cc1OC`, the IC50 at SUMO-activating enzyme was 12.8 µM (active).
A word on the Ki: it is a dissociation constant, usually derived from enzyme kinetics or from competition with a known ligand. Regarding `CC(N)C1CCC(C(=O)Nc2ccnc3[nH]ccc23)CC1` (stereo not drawn), the Ki in assay [3] was > 6.31 µM (inactive); in [4], > 5.01 µM (inactive); on Misshapen-like kinase 1 it was 3.16 µM (active); in [5], > 2 µM (inactive); at Activin receptor type-1, 1 µM (active); in assay [6], > 2.51 µM (inactive). For the same molecule, the Ki in [7] was > 1.26 µM (inactive); in assay [8] it was > 0.631 µM (inactive); on LIM domain kinase 1 it was 1 µM (active); in assay [9] it was 0.398 µM (active); in assay [10], > 7.94 µM (inactive); in assay [11], > 10 µM (inactive). Besides, the Ki was 3.98 µM (active) in [12]; 1.58 µM (active) in assay [13]; > 7.94 µM (inactive) in assay [14]; > 3.98 µM (inactive) in assay [15]; 3.98 µM (active) in [16]; > 7.94 µM (inactive) in assay [17]. The Ki in assay [18] is > 6.31 µM (inactive); in [19], > 3.16 µM (inactive); in assay [20], > 3.98 µM (inactive); in [21] it was > 1.58 µM (inactive); in assay [22], > 2 µM (inactive); in assay [23] it was > 2 µM (inactive).
